Values quoted from earlier work as cited in patent US20240408163A1, “CAPILLARY NUTRITIONAL COMPLEX” (NATURAL FOLIC, S.L., priority 2023, published 2024).

CC1=C(/C=C/C(C)=C/C=C/C(C)=C/C=C/C=C(C)/C=C/C=C(C)/C=C/C2=C(C)C(=O)[C@@H](O)CC2(C)C)C(C)(C)C[C@H](O)C1=O [Astaxanthin]
antioxidant power relative to coenzyme Q10 (times more powerful than coenzyme Q10): 800 times | antioxidant power relative to vitamin C (times more powerful than vitamin C): 6000 times
